One assay concerns the target IKKε (Homo sapiens (Human), UniProt Q14164). Put plainly: IKKε TR-FRET enzymatic assay. Conditions: read-out: IKKe IC50. It counts as biochemical. (Time-resolved FRET reads energy transfer from a long-lived donor to a nearby acceptor.)
Another assay addresses hJAK2 (Homo sapiens (Human), UniProt O60674). Briefly: hJAK2 LANCE TR-FRET enzymatic assay. Conditions: read-out: JAK2 IC50. The format is biochemical.
Another assay concerns the target TBK1 (Homo sapiens (Human), UniProt Q9UHD2). Briefly: TBK1 TR-FRET enzymatic assay.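 Also: phosphorylation of a biotinylated Ser/Thr peptide by purified full-length recombinant TBK1, read by TR-FRET after 240 min at 25 °C, IC50 is the geometric mean of at least four runs.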

pIC50: −log10 of the molar value.

Sequence of TBK1 (Q9UHD2 whole entry): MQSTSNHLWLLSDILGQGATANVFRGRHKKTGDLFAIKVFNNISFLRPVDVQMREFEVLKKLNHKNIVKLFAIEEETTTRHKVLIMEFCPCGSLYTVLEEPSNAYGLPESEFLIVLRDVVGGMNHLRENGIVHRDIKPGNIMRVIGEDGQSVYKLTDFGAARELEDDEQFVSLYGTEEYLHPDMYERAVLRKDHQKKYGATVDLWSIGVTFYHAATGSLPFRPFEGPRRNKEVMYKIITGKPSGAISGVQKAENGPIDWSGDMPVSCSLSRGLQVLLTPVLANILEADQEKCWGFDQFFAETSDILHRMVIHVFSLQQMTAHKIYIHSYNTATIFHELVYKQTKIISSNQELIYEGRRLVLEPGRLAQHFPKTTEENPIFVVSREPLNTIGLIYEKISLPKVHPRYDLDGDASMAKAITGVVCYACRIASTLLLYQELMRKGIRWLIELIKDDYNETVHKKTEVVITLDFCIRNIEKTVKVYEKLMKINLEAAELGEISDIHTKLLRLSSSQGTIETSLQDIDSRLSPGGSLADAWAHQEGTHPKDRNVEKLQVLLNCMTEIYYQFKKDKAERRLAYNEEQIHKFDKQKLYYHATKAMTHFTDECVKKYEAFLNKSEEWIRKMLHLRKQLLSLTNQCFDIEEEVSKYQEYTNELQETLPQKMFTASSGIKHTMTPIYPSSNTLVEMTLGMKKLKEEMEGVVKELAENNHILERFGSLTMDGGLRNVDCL
Sequence of IKKε (Q14164 whole entry): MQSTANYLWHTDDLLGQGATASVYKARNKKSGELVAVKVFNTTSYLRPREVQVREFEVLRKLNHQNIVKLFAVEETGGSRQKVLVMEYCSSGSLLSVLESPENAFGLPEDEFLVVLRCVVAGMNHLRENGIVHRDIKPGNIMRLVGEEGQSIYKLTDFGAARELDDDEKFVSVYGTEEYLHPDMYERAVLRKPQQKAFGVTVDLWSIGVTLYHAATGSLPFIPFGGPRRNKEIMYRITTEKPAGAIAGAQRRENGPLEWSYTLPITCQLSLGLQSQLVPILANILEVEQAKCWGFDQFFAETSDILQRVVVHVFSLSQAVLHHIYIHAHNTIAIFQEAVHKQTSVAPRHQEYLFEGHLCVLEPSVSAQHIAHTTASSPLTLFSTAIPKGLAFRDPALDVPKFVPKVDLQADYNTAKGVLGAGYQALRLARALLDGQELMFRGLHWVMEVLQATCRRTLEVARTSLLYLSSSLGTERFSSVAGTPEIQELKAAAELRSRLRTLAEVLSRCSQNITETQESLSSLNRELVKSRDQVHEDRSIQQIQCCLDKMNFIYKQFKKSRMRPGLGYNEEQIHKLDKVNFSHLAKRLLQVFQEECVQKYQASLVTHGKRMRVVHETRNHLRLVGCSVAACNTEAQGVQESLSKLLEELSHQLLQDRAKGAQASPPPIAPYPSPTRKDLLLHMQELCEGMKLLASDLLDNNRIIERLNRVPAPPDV
Sequence of hJAK2 (O60674 whole entry): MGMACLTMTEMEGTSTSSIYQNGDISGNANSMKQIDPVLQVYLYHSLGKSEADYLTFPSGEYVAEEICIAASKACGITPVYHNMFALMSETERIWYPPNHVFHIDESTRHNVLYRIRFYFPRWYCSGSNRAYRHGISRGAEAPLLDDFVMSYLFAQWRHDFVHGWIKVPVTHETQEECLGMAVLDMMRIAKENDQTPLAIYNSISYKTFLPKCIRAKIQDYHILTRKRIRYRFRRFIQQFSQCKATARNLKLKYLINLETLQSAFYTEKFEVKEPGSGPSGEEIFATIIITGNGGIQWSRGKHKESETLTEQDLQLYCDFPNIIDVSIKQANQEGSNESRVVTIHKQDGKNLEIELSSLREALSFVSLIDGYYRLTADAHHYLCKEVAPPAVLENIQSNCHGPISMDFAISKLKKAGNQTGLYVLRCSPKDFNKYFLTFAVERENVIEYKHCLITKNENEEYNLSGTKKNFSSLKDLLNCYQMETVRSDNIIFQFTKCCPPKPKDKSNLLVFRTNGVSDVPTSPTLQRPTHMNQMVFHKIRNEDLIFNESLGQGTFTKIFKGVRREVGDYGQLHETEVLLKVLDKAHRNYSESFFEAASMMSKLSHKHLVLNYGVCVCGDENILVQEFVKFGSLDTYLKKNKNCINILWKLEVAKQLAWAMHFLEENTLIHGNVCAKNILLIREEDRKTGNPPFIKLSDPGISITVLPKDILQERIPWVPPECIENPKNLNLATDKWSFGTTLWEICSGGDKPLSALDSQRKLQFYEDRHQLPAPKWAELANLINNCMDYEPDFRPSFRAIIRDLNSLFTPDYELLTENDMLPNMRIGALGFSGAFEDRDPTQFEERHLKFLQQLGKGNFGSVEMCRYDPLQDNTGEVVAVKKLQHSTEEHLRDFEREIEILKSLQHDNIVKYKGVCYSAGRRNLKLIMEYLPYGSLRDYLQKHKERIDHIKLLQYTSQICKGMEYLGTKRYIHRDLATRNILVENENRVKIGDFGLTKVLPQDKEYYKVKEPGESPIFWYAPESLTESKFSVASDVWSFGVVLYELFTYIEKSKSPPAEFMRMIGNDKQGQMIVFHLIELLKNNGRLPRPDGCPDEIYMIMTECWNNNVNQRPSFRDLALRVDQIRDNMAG

Take `N#Cc1cc(-c2ncnc(Nc3ccc(N4CCN(C5COC5)CC4)cc3)n2)ccc1N1CC2(CCO2)C1` [Example 210, 5-(4-((4-(4-(oxetan-3-yl)piperazin-1-yl)phenyl)amino)-1,3,5-triazin-2-yl)-2-(1-oxa-6-azaspiro[3.3]heptan-6-yl)benzonitrile]: the pIC50 (as a rule, the negative decadic logarithm of the IC50, by convention in mol/L) was 7.15 on IKKε, 6.45 on hJAK2 and 7.59 at TBK1.
Regarding `N#Cc1cc(-c2ncnc(Nc3ccc(N4CCN(C5COC5)CC4)cc3)n2)ccc1N1CC2(CCOCC2)C1` [Example 211, 5-(4-((4-(4-(oxetan-3-yl)piperazin-1-yl)phenyl)amino)-1,3,5-triazin-2-yl)-2-(7-oxa-2-azaspiro[3.5]nonan-2-yl)benzonitrile], the negative logarithm of the IC50 (pIC50) is 7.66 on IKKε, 6.77 on hJAK2 and 8.22 against TBK1.
On to `N#Cc1cc(-c2ncnc(Nc3ccc(N4CCN(C5COC5)CC4)cc3)n2)ccc1N1CCC2(CCOCC2)C1` [Example 212, 5-(4-((4-(4-(oxetan-3-yl)piperazin-1-yl)phenyl)amino)-1,3,5-triazin-2-yl)-2-(8-oxa-2-azaspiro[4.5]decan-2-yl)benzonitrile], for which the negative logarithm of the IC50 (pIC50) at IKKε is 7.20; on hJAK2, 6.86; against TBK1 it was 7.54.
Taken in the same sequence, the figures for `N#Cc1cc(-c2ncnc(Nc3ccc(N4CCN(C5COC5)CC4)cc3)n2)ccc1N1CCC2(CCOC2)CC1` [Example 213, 5-(4-((4-(4-(oxetan-3-yl)piperazin-1-yl)phenyl)amino)-1,3,5-triazin-2-yl)-2-(2-oxa-8-azaspiro[4.5]decan-8-yl)benzonitrile] were 7.85, no more than 6.00 and 8.52.
With `N#Cc1cc(-c2ncnc(Nc3ccc(N4CCN(C5COC5)CC4)cc3)n2)ccc1N1CCC2(CCO2)CC1` [Example 214, 5-(4-((4-(4-(oxetan-3-yl)piperazin-1-yl)phenyl)amino)-1,3,5-triazin-2-yl)-2-(1-oxa-7-azaspiro[3.5]nonan-7-yl)benzonitrile], the pIC50 is 7.37 at IKKε, 6.52 on hJAK2 and 7.92 against TBK1.
Regarding `N#Cc1cccc(-c2ncnc(Nc3ccc(N4CCN(C5COC5)CC4)cc3)n2)c1` [Example 215, 3-(4-((4-(4-(oxetan-3-yl)piperazin-1-yl)phenyl)amino)-1,3,5-triazin-2-yl)benzonitrile], the values for the negative logarithm of the IC50 (pIC50) at IKKε, at hJAK2 and against TBK1 were no more than 6.00, 6.18 and 6.00, respectively.
On to `N#Cc1cc(-c2ncnc(Nc3ccc(N4CCN(C5COC5)CC4)cc3)n2)ccc1OC1CCCCC1` [Example 217, 2-(cyclohexyloxy)-5-(4-((4-(4-(oxetan-3-yl)piperazin-1-yl)phenyl)amino)-1,3,5-triazin-2-yl)benzonitrile], for which the figures for the pIC50 at IKKε, on hJAK2 and on TBK1 were 7.85, 6.01 and 8.40, respectively.
On the same counts, the results for `C[C@@H](O)C(=O)N1CCC(Oc2ccc(-c3ncnc(Nc4ccc(N5CCN(C6COC6)CC5)cc4)n3)cc2C#N)CC1` [Example 219, (R)-2-((1-(2-hydroxypropanoyl)piperidin-4-yl)oxy)-5-(4-((4-(4-(oxetan-3-yl)piperazin-1-yl)phenyl)amino)-1,3,5-triazin-2-yl)benzonitrile] are 6.90, 6.20 and 7.36.
Take `C[C@H]1C[C@H](Oc2ccc(-c3ncnc(Nc4ccc(N5CCN(C6COC6)CC5)cc4)n3)cc2C#N)CCN1C(=O)CO` [Example 221, 2-(((2S,4R)-1-(2-hydroxyacetyl)-2-methylpiperidin-4-yl)oxy)-5-(4-((4-(4-(oxetan-3-yl)piperazin-1-yl)phenyl)amino)-1,3,5-triazin-2-yl)benzonitrile]: the pIC50 at IKKε is 7.17; at hJAK2 it was 6.31; on TBK1, 7.74.
In the case of `C[C@@H]1C[C@H](Oc2ccc(-c3ncnc(Nc4ccc(N5CCN(C6COC6)CC5)cc4)n3)cc2C#N)CCN1C(=O)CO` [Example 222, 2-(((2R,4R)-1-(2-hydroxyacetyl)-2-methylpiperidin-4-yl)oxy)-5-(4-((4-(4-(oxetan-3-yl)piperazin-1-yl)phenyl)amino)-1,3,5-triazin-2-yl)benzonitrile], the negative logarithm of the IC50 (pIC50) at IKKε was 7.22; on hJAK2 it was 6.74; at TBK1, 7.68.
On the same counts, the results for `C[C@H](O)C(=O)N1CCC(Oc2ccc(-c3ncnc(Nc4ccc(N5CCO[C@@H](CO)C5)cc4)n3)cc2C#N)CC1` [Example 225, 5-(4-((4-((R)-2-(hydroxymethyl)morpholino)phenyl)amino)-1,3,5-triazin-2-yl)-2-((1-((S)-2-hydroxypropanoyl)piperidin-4-yl)oxy)benzonitrile] are 7.66, no more than 6.00 and 8.10.
On the same counts, the results for `N#Cc1cc(-c2ncnc(Nc3ccc(N4CCO[C@@H](CO)C4)cc3)n2)ccc1OC1CCNCC1(F)F` (stereo partly drawn) [Example 226, 2-((3,3-difluoropiperidin-4-yl)oxy)-5-(4-((4-((R)-2-(hydroxymethyl)morpholino)phenyl)amino)-1,3,5-triazin-2-yl)benzonitrile] are 7.54, 6.51 and 8.30.
Take `N#Cc1cc(-c2ncnc(Nc3ccc(N4CCO[C@@H](CO)C4)cc3)n2)ccc1OC1CCN(C(=O)CO)CC1` [Example 227, (R)-2-((1-(2-hydroxyacetyl)piperidin-4-yl)oxy)-5-(4-((4-(2-(hydroxymethyl)morpholino)phenyl)amino)-1,3,5-triazin-2-yl)benzonitrile]: the pIC50 at IKKε was 8.40; at hJAK2, 6.48; on TBK1, 8.70.
On to `C[C@H](O)C(=O)N1CCC(Oc2ccc(-c3ncnc(Nc4ccc(N5CCO[C@@H](CO)C5)cc4)n3)cc2C#N)C(F)(F)C1` (stereo partly drawn) [Example 228, 2-((3,3-difluoro-1-((S)-2-hydroxypropanoyl)piperidin-4-yl)oxy)-5-(4-((4-((R)-2-(hydroxymethyl)morpholino)phenyl)amino)-1,3,5-triazin-2-yl)benzonitrile], for which the pIC50 at IKKε was 8.70; on hJAK2, 6.69; against TBK1, 9.00.
On the same counts, the results for `CC(=O)N1CC[C@H](Oc2ccc(-c3ncnc(Nc4ccc(N5CCO[C@@H](CO)C5)cc4)n3)cc2C#N)C(F)(F)C1` [Example 230, 2-(((5)-1-acetyl-3,3-difluoropiperidin-4-yl)oxy)-5-(4-((4-((R)-2-(hydroxymethyl)morpholino)phenyl)amino)-1,3,5-triazin-2-yl)benzonitrile] are 8.70, 6.63 and 8.40.
Turning to `C[C@H](O)C(=O)N1CC[C@H](Oc2ccc(-c3ncnc(Nc4ccc(N5CCO[C@@H](CO)C5)cc4)n3)cc2C#N)[C@H](F)C1` [Example 231, 2-(((3R,4S)-3-fluoro-1-((S)-2-hydroxypropanoyl)piperidin-4-yl)oxy)-5-(4-((4-((R)-2-(hydroxymethyl)morpholino)phenyl)amino)-1,3,5-triazin-2-yl)benzonitrile], the pIC50 on IKKε is 9.00; on hJAK2, 6.31; on TBK1 it was 8.52.
On the same counts, the results for `N#Cc1cc(-c2ncnc(Nc3ccc(N4CCO[C@H](CO)C4)cc3)n2)ccc1O[C@H]1CCN(C(=O)CO)C[C@H]1F` [Example 232, 2-(((3R,4S)-3-fluoro-1-(2-hydroxyacetyl)piperidin-4-yl)oxy)-5-(4-((4-((S)-2-(hydroxymethyl)morpholino)phenyl)amino)-1,3,5-triazin-2-yl)benzonitrile] are 9.00, 6.89 and 8.70.
On to `C[C@H](O)C(=O)N1CC[C@H](Oc2ccc(-c3ncnc(Nc4ccc(N5CCO[C@H](CO)C5)cc4)n3)cc2C#N)[C@H](F)C1` [Example 233, 2-(((3R,4S)-3-fluoro-1-((S)-2-hydroxypropanoyl)piperidin-4-yl)oxy)-5-(4-((4-((S)-2-(hydroxymethyl)morpholino)phenyl)amino)-1,3,5-triazin-2-yl)benzonitrile], for which the pIC50 at IKKε was 9.00; on hJAK2, 6.48; at TBK1 it was 8.70.
On the same counts, the results for `N#Cc1cc(-c2ncnc(Nc3ccc(N4CCN(C5COC5)CC4)cc3)n2)ccc1O[C@@H]1CCNC[C@H]1F` [Example 236, 2-(((3R,4R)-3-fluoropiperidin-4-yl)oxy)-5-(4-((4-(4-(oxetan-3-yl)piperazin-1-yl)phenyl)amino)-1,3,5-triazin-2-yl)benzonitrile] are 6.63, 6.14 and 7.24.
Take `N#Cc1cc(-c2ncnc(Nc3ccc(N4CCN(C5COC5)CC4)cc3)n2)ccc1O[C@H]1CCNC[C@H]1F` [Example 239, 2-(((3R,4S)-3-fluoropiperidin-4-yl)oxy)-5-(4-((4-(4-(oxetan-3-yl)piperazin-1-yl)phenyl)amino)-1,3,5-triazin-2-yl)benzonitrile]: the pIC50 was 7.23 on IKKε, 6.39 at hJAK2 and 8.10 against TBK1.
Turning to `N#Cc1cc(-c2ncnc(Nc3ccc(N4CCN(C5COC5)CC4)c(F)c3)n2)ccc1O[C@H]1CCN(C(=O)CO)C[C@H]1F` [Example 240, 2-(((3R,4S)-3-fluoro-1-(2-hydroxyacetyl)piperidin-4-yl)oxy)-5-(4-((3-fluoro-4-(4-(oxetan-3-yl)piperazin-1-yl)phenyl)amino)-1,3,5-triazin-2-yl)benzonitrile], the pIC50 at IKKε was 9.00; at hJAK2, 6.70; against TBK1, 9.00.
As to `C[C@@H]1CN(C2COC2)CCN1c1ccc(Nc2ncnc(-c3ccc(O[C@H]4CCN(C(=O)CO)C[C@H]4F)c(C#N)c3)n2)cc1` [Example 242, 2-(((3R,4S)-3-fluoro-1-(2-hydroxyacetyl)piperidin-4-yl)oxy)-5-(4-((4-((R)-2-methyl-4-(oxetan-3-yl)piperazin-1-yl)phenyl)amino)-1,3,5-triazin-2-yl)benzonitrile], the pIC50 was 9.00 at IKKε, 6.60 on hJAK2 and 8.70 on TBK1.
